Converted amounts (≈) assume the structure as drawn. Blank lines part the entries; values can stand above or below the compound they belong to.
Key:
[1] = Rat feeding study: heptadecanoic acid and CoQ10 in duodenum, jejunum, ileum (Example 2); assay type: in vivo; settings: for bioavailability in small intestinal tissues: encapsulated within digestible (corn oil) droplets with the smallest size, rat feeding study
Description: An animal feeding study was used to test the bioavailability of free fatty acids and CoQ10. Female Sprague Dawley rats (about 200-250 g) were purchased from Charles River Laboratories (Wilmington, Mass.). The Institutional Animal Care and Use Committee of the University of Massachusetts, Amherst, approved all animal procedures. Animals were housed in individual wire-bottomed cages in a windowless room with a 12-h light-dark cycle. After 10 days of adaptation, rats were fasted for 6 hours and 5 ml of emulsion was administered into a rat's stomach using a feeding needle (Roboz Surgical Instrument, Gaithersburg, Md.). Sample administration was conducted five times with 30 min intervals. Thirty min after the final administration, the rats were sacrificed by CO2 gas asphyxiation and blood samples were collected via cardiac puncture. Collected blood samples were allowed to clot for 30 min and then the serum layer was separated by centrifugation at 800 g for 20 min at 4° C. Serum was kept at −80° C. until analysis. The small intestine was flushed with phosphate buffered saline (PBS) five times, and the duodenum, jejunum, and ileum were collected. The intestine samples were kept at −80° C. until fatty acid composition and CoQ10 analyses. The in vivo experiment was carried out once, using three rats per sample analyzed.
Intestine extract was prepared by a method described previously by Tang, P. H., Miles, M. V., Miles, L., Quinlan, J., Wong, B., Wenisch, A., and Bove, K., “Measurement of reduced and oxidized coenzyme Q(9) and coenzyme Q(10) levels in mouse tissues by HPLC with coulometric detection”, Clinica Chimica Acta, 341(1-2):173-84 (2004), which is incorporated herein in its entirety. After thawing the intestine, approximately, 50 mg of intestine was weighed and 1 ml of ice cold 0.15M NaCl solution was added. Intestine sample (about 50 mg) was homogenized on ice and 50 μL of CoQ6 solution (Internal standard) and 25 μL of 1,4-benzoquione (5 mg/mL) solution was added to oxidize CoQ10. After 30 min. incubation at room temperature, 5 ml of 1-propanol was added and then mixed by vortexing for 1 min. Sample was centrifuged at 2,000 g for 5 min and the supernatant was filtered with a 0.1 μm disposable syringe filter (Celltreat, Shirley, Mass.). The oxidized CoQ10 concentration was standardized relative to the tissue weight.
Quantitative analysis was carried out using a high performance liquid chromatography system (Shimadzu Co. Japan) equipped with a pump (LC-10 AT), UV-visible detector (SPD-M10A), and controller (SCL-10A). A reverse phase C-18 column (ODS-2 Hypersil, 200×4.6 mm, 5 μm, Thermo scientific, Waltham, Mass.) was used. The mobile phase comprised of a mixture of 4.2 g sodium acetate anhydrous, 15 mL of glacial acetic acid, 15 mL 2-propanol, 830 mL methanol, and 140 ml hexane. The injection volume was 100 μl, the flow rate was 1 ml/min, UV detection was made at 275 nm and all analysis was performed at room temperature under isocratic conditions.
Lipids were extracted from samples (duodenum, jejunum, ileum) and blood using a standard method by Folch, J., Lees, M., and Stanley, G. H. S., “A simple method for the isolation and purification of total lipids from animal tissues”, Journal of Biological Chemistry, 226(1):497-509 (1957), which is incorporated herein in its entirety, and then the fatty acids were methylated prior to gas chromatography analysis as taught by Park, Y. and Pariza, M. W., “Evidence that commercial calf and horse sera can contain substantial amounts of trans-10,cis-12 conjugated linoleic acid”, Lipids, 33(8):817-19 (1998), which is incorporated herein in its entirety. Tridecenoic acid was used as an internal standard. Methyl esters of fatty acids were analyzed using a GC instrument (GC-17A, Shimadzu, Kyoto, Japan) fitted with a flame-ionization detector. […]

[2] = Curcumin solubility in curcumin-emulsion mixtures, spectrophotometric (Example 3); assay type: physicochemical; settings: excipient emulsion, aqueous with cosolvent or surfactant or cyclodextrin, thermodynamic from solid
Description: Preparation of curcumin-emulsion, curcumin-oil, and curcumin-buffer mixtures. […] After incubation, selected samples were immediately placed in an ice water and then used for the following experiments. In some experiments, the curcumin was mixed with bulk corn oil or with buffer (PBS) solution rather than an emulsion.
(§1) 1 mL of supernatant was then mixed with 5 mL chloroform, vortexed, and centrifuged at 1750 rpm for 10 min at ambient temperature. […] The two bottom chloroform layers were combined, and diluted to an appreciate concentration to be analyzed by a UV-VIS spectrophotometer at 419 nm (Ultraspec 3000 pro, GE Health Sciences, USA). A cuvette containing pure chloroform was used as a reference cell.

[3] = Curcumin oil-solubility in bulk corn oil by turbidity (Example 3); assay type: physicochemical; settings: for dissolution of curcumin crystals in corn oil (turbidity versus time): 3 mg/mL
Description: In some experiments, the change in turbidity with time was measured at a fixed incubation temperature (30 or 100° C.) to determine the kinetics of isothermal dissolution.

[4] = Cross-polarized light microscopy of curcumin crystals in mixtures (Example 3); assay type: physicochemical
[5] = Curcumin solubility in curcumin-excipient emulsion mixtures of different droplet size (Example 4); assay type: physicochemical; settings: for solubility at 10 min: aqueous with cosolvent or surfactant or cyclodextrin, thermodynamic from solid, after incubation at 100° C.; for amount of curcumin present within the emulsion: 30° C. for 30 min
Description: The resulting mixtures were then incubated at either 30° C. for 30 min or 100° C. for 10 min to simulate a salad dressing or a cooking sauce, respectively. After incubation, selected samples were immediately placed in an ice water and then used for the following experiments.
as §1, with “One millilitre” for “1 mL”, “rpm (≈940×G)” for “rpm”, “a” for “an appreciate”, “concentration suitable” for “concentration”, “analysed” for “analyzed”, “Sciences, Pittsburgh, Pa.,” for “Sciences,”

[6] = Cross-polarized light microscopy of curcumin crystals (Example 4); assay type: physicochemical
[7] = In vitro digestion model: bioaccessibility of β-carotene crystals mixed with emulsion or buffer (FIG. 6); assay type: in vitro ADME; settings: β-carotene crystals mixed with oil-in-water emulsion (4% corn oil) versus buffer solution (PBS) without oil
Description: In this exemplary embodiment, β-carotene crystals were initially mixed with either an oil-in-water emulsion (containing 4% corn oil) or a buffer solution (PBS) containing no oil. The resulting mixtures were then passed through an in vitro gastrointestinal model that simulated the mouth, stomach, and small intestine. The bioaccessibility of β-carotene was determined by centrifuging the digesta resulting from a GIT model, and then measuring the fraction of β-carotene in the mixed micelle (middle phase). The GIT model used is described in Salvia-Trujillo, L.; Qian, C.; Martin-Belloso, O.; McClements, D. J., “Influence of Particle Size on Lipid Digestion and β-carotene Bioaccessibility in Emulsions and Nanoemulsions”, Food Chemistry, 141:1472-80 (2013), which is incorporated by reference herein in its entirety and for all purposes. In another instance, the method of these teachings also include using an animal feeding study to verify improvement of oral bioavailability when the predetermined pharmaceutical or nutraceutical is ingested with the food matrix. […]

[8] = Simulated gastrointestinal tract model: β-carotene bioaccessibility of nanoemulsions (Example 1); assay type: in vitro ADME; settings: nanoemulsion, 0% corn oil (pure lemon oil system)
Description: Each β-carotene-enriched nanoemulsion was passed through a three-step simulated GIT model that consisted of a mouth, gastric, and small intestine phase. The particle size, charge, and microstructure of the samples were measured after incubation in each stage. […]
Small Intestine phase: Digesta samples (30 ml) obtained from the simulated gastric phase were placed in a beaker incubated in a water bath (37° C.) for 10 min and then adjusted to pH 7 with NaOH solution (0.05 or 1 M). […] The amount of free fatty acids released was calculated from the titration curves as described in Li, Y. and McClements, D. J., New Mathematical Model for Interpreting pH-Stat Digestion Profiles: Impact of Lipid Droplet Characteristics on in Vitro Digestibility”, Journal of Agricultural and Food Chemistry, 58:8085-92 (2010), which is incorporated herein in its entirety. The release of free fatty acids from the digestible oil (corn oil) was calculated by subtracting the FFA concentration determined at each time point for the pure lemon oil nanoemulsions from the FFA concentration determined for the nanoemulsions containing corn oil. […]

SMILES: CCCCCCCCCCCCCCCCC(=O)O [heptadecanoic acid, reference compound]
bioavailability in small intestinal tissues [1]: highest | absorption of heptadecanoic acid in duodenum and jejunum ([1]; rat, in vivo): slightly more absorption | absorption of heptadecanoic acid in duodenum, jejunum and ileum ([1]; rat, in vivo): significantly higher

solubility at 60 min ([2]; incubation for 60 min at 30° C.): ~54 µg/mL (≈ 147 µM) | solubility at 60 min ([2]; incubation for 60 min at 90° C. (so in the source)): ~218 µg/mL (≈ 592 µM) | dissolution of curcumin crystals in corn oil (turbidity versus time) ([3]; held at 30° C.): only dissolved slowly | dissolution of curcumin crystals in corn oil (turbidity versus time) ([3]; held at 100° C.): rapidly dissolved | solubility ([3]; bulk corn oil, oil or lipid, thermodynamic from solid, ambient temperature, estimated from turbidity at 3 and 4 mg/mL): 3000 to 4000 µg/mL (≈ 8140 to 10900 µM) | dissolution of curcumin crystals in curcumin-emulsion mixtures ([4]; held at 100° C., any incubation time): rapidly and completely dissolved | dissolution of curcumin crystals in curcumin-emulsion mixtures ([4]; incubated at 30° C. from 10 to 120 min): did not completely dissolve | solubility at 10 min ([5]; excipient emulsion, large droplets): 230 µg/mL (≈ 624 µM) | solubility at 10 min ([5]; excipient emulsions, small and medium droplets): 270 to 280 µg/mL (≈ 733 to 760 µM) | amount of curcumin present within the emulsion ([5]; large emulsion): ~88 ± 26 µg/mL | amount of curcumin present within the emulsion ([5]; medium emulsion): ~104 ± 6 µg/mL | amount of curcumin present within the emulsion ([5]; small emulsion): around 66±1 μg/mL | dissolution of curcumin crystals in curcumin-excipient emulsion mixtures ([6]; all mixtures held at 100° C.): rapidly and completely dissolved | dissolution of curcumin crystals in curcumin-excipient emulsion mixtures ([6]; all mixtures incubated at 30° C.): did not completely dissolve
SMILES: COc1cc(/C=C/C(=O)CC(=O)/C=C/c2ccc(O)c(OC)c2)ccc1O [curcumin]

SMILES: COC1=C(OC)C(=O)C(C/C=C(\C)CC/C=C(\C)CC/C=C(\C)CC/C=C(\C)CC/C=C(\C)CC/C=C(\C)CC/C=C(\C)CC/C=C(\C)CC/C=C(\C)CCC=C(C)C)=C(C)C1=O [CoQ10, Coenzyme Q10]
bioavailability in small intestinal tissues [1]: highest | absorption of CoQ10 in all regions of the small intestine ([1]; rat, in vivo): some absorption | absorption of CoQ10 in duodenum ([1]; rat, in vivo): no significant differences | absorption of CoQ10 in jejunum and ileum ([1]; rat, in vivo): significantly higher

bioaccessibility of β-carotene [7]: increases the bioaccessibility | bioaccessibility of β-carotene [8]: ≈ 5%
SMILES: CC1=C(/C=C/C(C)=C/C=C/C(C)=C/C=C/C=C(C)/C=C/C=C(C)/C=C/C2=C(C)CCCC2(C)C)C(C)(C)CCC1 [β-carotene]

Source: patent US20170035691A1, “FOOD MATRICES AND METHODS OF MAKING AND USING” (UNIVERSITY OF MASSACHUSETTS, priority 2014, published 2017)
